Values of other authors, collected in US20260191683A1, “SUSTAINED RELEASE OCULAR IMPLANTS” (University of Tennessee Research Foundation, priority 2023, published 2026).

Settings: high permeability

In the case of CC(C)C[C@H](CN)CC(=O)O [PRG, pregabalin], the BCS class is given as “BCS class I drug”.
